“Also recorded” adds a separate entry of the source.
What was measured:
[1] = system: luciferase-modified U87MG tumor cells; assay: In vivo bioluminescent imaging of intracranial tumor growth, orthotopic GBM mouse model; details: imaging days 13, 20 and 30; vs saline/vehicle
[2] = system: luciferase-modified U87MG tumor cells; assay: Ex vivo T1-weighted MRI tumor volume, orthotopic GBM mouse model; assay type: in vivo; details: day 30, ex vivo MRI; vs saline
Method: Athymic nude female mice (Charles Rivers Laboratories and Envigo), 6 to 8 weeks of age, were anesthetized with a ketamine/xylazine cocktail solution (100 mg/kg; 10 mg/kg). Then, mice were secured in a stereotactic head frame and a midline 1 cm incision over the scalp was made. Natural tears lubricant was applied to the eyes. For each mouse, 5 × 10^6 U87MG cells in 5 µL serum free Dulbecco’s Modified Eagle Medium (DMEM) tagged with a luciferase […] gene were implanted into the right hippocampus using a 10 µL Hamilton syringe at the following coordinates, in reference to the bregma: 1.5 mm lateral, 1.5 mm posterior and 3.5 mm in depth; the needle was lowered to 3.5 mm and pulled up by 1 mm, prior to the injection (Marrero et al., 2014) (FIG. 1B). Rectal and cranial temperatures will be maintained at 36-37° C. during surgical procedure. […]
Treatment was administered starting on day 13 after implantation, and intracranial tumor growth was quantified using in vivo bioluminescent imaging on days 13 (before treatment) and then 20 and 30. […]
Cheshire image processing software (Hayden Image/Processing Group, Waltham, MA), was used to manually outline whole brain and tumor volumes enhanced by Gd deposition. […] Whole brain and tumor volumes (mm^3) were extracted and analyzed (Jeffes et al., 2005; Blasiak et al., 2013). […]

[3] = Physiological variables (body weight, temperature, survival) in GBM mouse model; assay type: in vivo
Method: Athymic nude female mice (Charles Rivers Laboratories and Envigo), 6 to 8 weeks of age, were anesthetized with a ketamine/xylazine cocktail solution (100 mg/kg; 10 mg/kg). Then, mice were secured in a stereotactic head frame and a midline 1 cm incision over the scalp was made. Natural tears lubricant was applied to the eyes. […] Rectal and cranial temperatures will be maintained at 36-37° C. during surgical procedure. The incision was closed using black monofilament nylon 5.0 sterile sutures and the area was cleaned with betadine solution. The mice were placed in individual cages and observed daily for weight, temperature, and locomotor changes. Mice were perfused at the end of the 30-day survival, brains removed and ex vivo MRI imaging were conducted.
Mice were anesthetized with a ketamine/xylazine cocktail solution (100 mg/kg; 10 mg/kg) and secured in a stereotactic head frame. A midline, 1 cm incision was made over the scalp. Natural tear lubricant was applied to the eyes. For each mouse, 5 × 10^6 U87MG cells in 5 µL serum-free Dulbecco’s Modified Eagle Medium (DMEM) were injected into the right hippocampus using a 10 µL Hamilton syringe at the following coordinates related to the bregma: 1.5 mm lateral, 1.5 mm posterior, and 3.5 mm in depth. […]

recurrent GBM = details: single agent or in combination with chemotherapy; cited from earlier work
P2Xs = details: cited from earlier work
P2Y 2 = P2Y 2 (Homo sapiens, UniProt P41231); details: cited from earlier work
Chain of P2Y 2 (P41231 whole entry, species assumed): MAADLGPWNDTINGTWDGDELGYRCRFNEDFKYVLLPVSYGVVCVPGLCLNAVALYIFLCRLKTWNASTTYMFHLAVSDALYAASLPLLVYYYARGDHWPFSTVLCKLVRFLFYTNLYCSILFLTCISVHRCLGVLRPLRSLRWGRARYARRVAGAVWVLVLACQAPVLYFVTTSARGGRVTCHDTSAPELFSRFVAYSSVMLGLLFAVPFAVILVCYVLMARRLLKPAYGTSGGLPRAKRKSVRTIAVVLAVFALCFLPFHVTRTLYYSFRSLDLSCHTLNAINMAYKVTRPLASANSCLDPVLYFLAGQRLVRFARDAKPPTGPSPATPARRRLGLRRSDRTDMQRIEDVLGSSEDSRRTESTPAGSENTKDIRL

P2Y4 = P2Y4 (Homo sapiens, UniProt P51582); details: cited from earlier work
Chain of P2Y4 (P51582 whole entry, species assumed): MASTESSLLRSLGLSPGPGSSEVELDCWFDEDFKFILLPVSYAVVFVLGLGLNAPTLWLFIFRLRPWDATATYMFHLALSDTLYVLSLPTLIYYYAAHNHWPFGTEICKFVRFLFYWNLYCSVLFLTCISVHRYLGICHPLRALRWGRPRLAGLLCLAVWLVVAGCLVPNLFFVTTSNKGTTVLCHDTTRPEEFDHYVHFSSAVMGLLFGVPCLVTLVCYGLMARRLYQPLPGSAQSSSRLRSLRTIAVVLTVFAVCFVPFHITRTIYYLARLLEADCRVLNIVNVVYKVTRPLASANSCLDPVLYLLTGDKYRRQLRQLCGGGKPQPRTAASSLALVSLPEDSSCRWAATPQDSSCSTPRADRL

P2×2 = target: T1, P2×2 (Homo sapiens, UniProt Q9UBL9); details: cited from earlier work
T1 sequence (Q9UBL9 1-471): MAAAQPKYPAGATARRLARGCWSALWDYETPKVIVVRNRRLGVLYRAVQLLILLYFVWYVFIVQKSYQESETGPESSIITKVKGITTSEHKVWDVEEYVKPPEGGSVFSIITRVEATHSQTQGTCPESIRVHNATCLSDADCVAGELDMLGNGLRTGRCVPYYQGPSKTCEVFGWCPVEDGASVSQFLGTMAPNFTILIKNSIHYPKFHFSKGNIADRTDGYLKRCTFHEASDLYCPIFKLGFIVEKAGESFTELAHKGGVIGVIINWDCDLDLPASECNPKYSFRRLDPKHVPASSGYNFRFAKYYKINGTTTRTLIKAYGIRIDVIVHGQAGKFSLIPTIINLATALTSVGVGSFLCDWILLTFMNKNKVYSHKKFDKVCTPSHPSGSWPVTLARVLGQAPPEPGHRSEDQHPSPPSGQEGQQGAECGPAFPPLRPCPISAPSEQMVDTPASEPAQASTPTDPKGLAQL

Compound	Bioluminescent tumor growth/size vs vehicle (in words) [1]	MRI (T1WI) tumor volume reduction compared to vehicle [2]	MRI (T1WI) tumor volume vs vehicle (in words) [2]	Survival ([3]; 30-day survival period)	Change in rectal temperature compared to vehicle ([3]; during the 30 days of survival)	Radiographic response rate (recurrent GBM)	pEC50 (P2Xs) (P2Xs)	pEC50 (P2Y 2) (P2Y 2)	pEC50 (P2Y4) (P2Y4)	pEC50 (P2×2) (P2×2)
Avastin: recombinant humanized anti-VEGF monoclonal antibody	reduced tumor size; also recorded: repress orthotopic GBM; also recorded: significantly reduced tumorigenesis; also recorded: significant reduction in growth and size	67%	reduced GBM tumor volumes	improved survival	No significant changes	up to 40%	–	–	–	–
Cc1ccc(C(=O)Nc2ccc(S(=O)(=O)O)c3cc(S(=O)(=O)O)cc(S(=O)(=O)O)c23)cc1NC(=O)c1cccc(NC(=O)Nc2cccc(C(=O)Nc3cc(C(=O)Nc4ccc(S(=O)(=O)O)c5cc(S(=O)(=O)O)cc(S(=O)(=O)O)c45)ccc3C)c2)c1 [Suramin]	–	–	–	–	–	–	5.4	4.3	4.0	4.5
